{
  "source": "patent US10815222B2",
  "about": "“Compounds for use in the treatment of kinetoplastid infection” (C.N.C.C.S. S.c.a.r.l. COLLEZIONE NAZIONALE DEI COMPOSTI …, priority 2016, dated 2020)",
  "note": "pEC50: −log10 of the molar value.",
  "data": [
    {"tested_on": "Bloodstream form of Trypanosoma brucei, strain Lister 427", "experiment": "Trypanosoma brucei growth inhibition assay (CellTiter-Glo, 24 h)", "assay_type": "cell-based", "conditions": "Trypanosoma brucei; T. Brucei Growth Inibition Assay, class symbols; read-out: T. Brucei GI EC50", "procedure,_shortened": "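Growth read-out was CellTiter-Glo luminescence after 24 h at 37 °C incubation of 1500 bloodstream-form Lister 427 trypanosomes per well with compound, in supplemented IMDM containing 10% FBS and at most 0.25% DMSO.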", "values": [
      {"compound": "COc1nc2ccccc2cc1-c1cnc(C2CNCCN2C(=O)Cc2ccccc2)[nH]1", "note": "(stereo not drawn)", "pEC50": "5.30 to 6.00"},
      {"compound": "COc1nc2ccccc2cc1-c1cnc(C2CN(S(C)(=O)=O)CCN2C(=O)Cc2ccccc2)[nH]1", "note": "(stereo not drawn)", "pEC50": "5.30 to 6.00"},
      {"compound": "COc1nc2ccccc2cc1-c1cnc(C2CN(CC(F)F)CCN2C(=O)Cc2ccccc2)[nH]1", "note": "(stereo not drawn)", "pEC50": "5.30 to 6.00"},
      {"compound": "CCn1cc(CN2CCC(c3ncc(-c4cc5ccccc5nc4OC)[nH]3)N(C(=O)Cn3c(C(F)(F)F)nc4ccc(OC)cc43)CC2)cn1", "note": "(stereo not drawn)", "pEC50": "6.00 to 6.29"},
      {"compound": "COc1ccc2nc(C(F)(F)F)n(CC(=O)N3CCN(Cc4cn[nH]c4)CCC3c3ncc(-c4cc5ccccc5nc4OC)[nH]3)c2c1", "note": "(stereo not drawn)", "pEC50": "6.30 to 7.00"},
      {"compound": "COc1ccc2nc(C(F)(F)F)n(CC(=O)N3CCN(Cc4cnn(C)c4C)CCC3c3ncc(-c4cc5ccccc5nc4OC)[nH]3)c2c1", "note": "(stereo not drawn)", "pEC50": "6.30 to 7.00"},
      {"compound": "COc1nc2ccccc2cc1-c1cnc(C2CN(C(C)=O)CCN2C(=O)Cc2ccccc2)[nH]1", "note": "(stereo not drawn)", "pEC50": "5.30 to 6.00"},
      {"compound": "COc1ccc2nc(C(F)(F)F)n(CC(=O)N3CCN(C4CCCC4)CCC3c3ncc(-c4cc5ccccc5nc4OC)[nH]3)c2c1", "note": "(stereo not drawn)", "pEC50": "6.30 to 7.00"},
      {"compound": "COc1nc2ccccc2cc1-c1cnc(C2CN(C(C)C)CCN2C(=O)Cc2ccccc2)[nH]1", "note": "(stereo not drawn)", "pEC50": "5.30 to 6.00"},
      {"compound": "COc1ccc2nc(C(F)(F)F)n(CC(=O)N3CCN(C(C)C)CCC3c3ncc(-c4cc5ccccc5nc4OC)[nH]3)c2c1", "note": "(stereo not drawn)", "pEC50": "6.30 to 7.00"},
      {"compound": "CN1CCN(C(=O)Cc2ccccc2)C(c2ncc(-c3ccc4ccccc4c3)[nH]2)C1", "note": "(stereo not drawn)", "pEC50": "5.30 to 6.00"},
      {"compound": "CN1CCN(C(=O)Cc2cnc3ccccc3c2)C(c2ncc(-c3ccc4ccccc4c3)[nH]2)C1", "note": "(stereo not drawn)", "pEC50": "5.30 to 6.00"},
      {"compound": "CN1CCN(C(=O)Cc2ccccc2)C(c2ncc(-c3ccc4ncccc4c3)[nH]2)C1", "note": "(stereo not drawn)", "pEC50": "5.30 to 6.00"},
      {"compound": "CN1CCN(C(=O)Cn2cc3ccccc3n2)C(c2ncc(-c3ccc4ccccc4c3)[nH]2)C1", "note": "(stereo not drawn)", "pEC50": "5.30 to 6.00"},
      {"compound": "COc1ccc2nc(C(F)(F)F)n(CC(=O)N3C[C@@H](NC4CCOC4)CC[C@H]3c3ncc(-c4cc5ccccc5nc4OC)[nH]3)c2c1", "note": "(stereo partly drawn)", "pEC50": "6.00 to 6.29"},
      {"compound": "COc1ccc2nc(C(F)(F)F)n(CC(=O)N3CCN(Cc4cnn(C)c4)CCC3c3ncc(-c4cc5ccccc5nc4OC)[nH]3)c2c1", "note": "(stereo not drawn)", "pEC50": "6.30 to 7.00"},
      {"compound": "COc1ccc2nc(C(F)(F)F)n(CC(=O)N3CCN(Cc4cnc(C)s4)CCC3c3ncc(-c4cc5ccccc5nc4OC)[nH]3)c2c1", "note": "(stereo not drawn)", "pEC50": "6.30 to 7.00"},
      {"compound": "COc1ccc2nc(C(F)(F)F)n(CC(=O)N3CCN(Cc4cn(C)nn4)CCC3c3ncc(-c4cc5ccccc5nc4OC)[nH]3)c2c1", "note": "(stereo not drawn)", "pEC50": "6.30 to 7.00"},
      {"compound": "COc1ccc2nc(C)n(CC(=O)N3CC[C@H](NCc4ccn(C)n4)C[C@H]3c3ncc(-c4cc5ccccc5nc4OC)[nH]3)c2c1", "pEC50": "5.30 to 6.00"},
      {"compound": "COc1ccc2nc(C)n(CC(=O)N3CCN(C4CCOC4)C[C@H]3c3ncc(-c4cc5ccccc5nc4OC)[nH]3)c2c1", "note": "(stereo partly drawn)", "pEC50": "6.30 to 7.00"},
      {"compound": "COc1ccc2nc(C)n(CC(=O)N3CC[C@H](NCC4CCOC4)C[C@H]3c3ncc(-c4cc5ccccc5nc4OC)[nH]3)c2c1", "note": "(stereo partly drawn)", "pEC50": "5.30 to 6.00"},
      {"compound": "COc1ccc2[nH]c(C)c(CC(=O)N3CCN(CCCC(=O)O)CC3c3ncc(-c4ccc5ccccc5c4)[nH]3)c2c1", "note": "(stereo not drawn)", "pEC50": "5.30 to 6.00"},
      {"compound": "COc1ccccc1C(=O)N1CCN(C)CC1c1ncc(-c2ccc3ccccc3c2)[nH]1", "note": "(stereo not drawn)", "pEC50": "5.30 to 6.00"},
      {"compound": "COc1nc2ccccc2cc1-c1cnc([C@@H]2CCN(Cc3ccn(C)n3)CCN2C(=O)[C@](OC)(c2ccccc2)C(F)(F)F)[nH]1", "pEC50": "5.30 to 6.00"},
      {"compound": "COc1ccc2nc(C)n(CC(=O)N3CCN(CCn4cccn4)C[C@H]3c3ncc(-c4cc5ccccc5nc4OC)[nH]3)c2c1", "pEC50": "6.30 to 7.00"},
      {"compound": "COc1ccc2nc(C(F)(F)F)n(CC(=O)N3CCN(C4CCN(C)CC4)C[C@H]3c3ncc(-c4cc5ccccc5nc4OC)[nH]3)c2c1", "pEC50": "6.30 to 7.00"},
      {"compound": "COc1ccc2nc(C)n(CC(=O)N3CCN(Cc4cn(C)nn4)C[C@H]3c3ncc(-c4cc5ccccc5nc4OC)[nH]3)c2c1", "pEC50": "6.00 to 6.29"},
      {"compound": "COc1ccc2nc(C)n(CC(=O)N3CCN(C4CCOCC4)C[C@H]3c3ncc(-c4cc5ccccc5nc4OC)[nH]3)c2c1", "pEC50": "6.30 to 7.00"},
      {"compound": "COc1nc2ccccc2cc1-c1cnc([C@@H]2CCN(Cc3ccn(C)n3)CCN2C(=O)[C@@](OC)(c2ccccc2)C(F)(F)F)[nH]1", "pEC50": "5.30 to 6.00"},
      {"compound": "COc1nc2ccccc2cc1-c1cnc([C@@H]2CN(C[C@@H]3CCOC3)CCN2C(=O)Cn2c(C(F)(F)F)nc3ccccc32)[nH]1", "note": "(single isomer, unassigned)", "pEC50": "> 7.00"},
      {"compound": "COc1nc2ccccc2cc1-c1cnc([C@@H]2CN(C[C@H]3CCOC3)CCN2C(=O)Cn2c(C(F)(F)F)nc3ccccc32)[nH]1", "note": "(single isomer, unassigned)", "pEC50": "> 7.00"},
      {"compound": "COc1nc2ccccc2cc1-c1cnc(C2CN(C)CCN2C(=O)Cc2ccccc2)[nH]1", "note": "(stereo not drawn) [1-(2-(5-(2-methoxyquinolin-3-yl)-1H-imidazol-2-yl)-4-methylpiperazin-1-yl)-2-phenylethan-1-one]", "pEC50": "5.30 to 6.00"},
      {"compound": "COc1ccc2nc(C(F)(F)F)n(CC(=O)N3CCN(C4CCS(=O)(=O)CC4)CCC3c3ncc(-c4cc5ccccc5nc4OC)[nH]3)c2c1", "note": "(stereo not drawn) [1-(4-(1,1-dioxidotetrahydro-2H-thiopyran-4-yl)-7-(5-(2-methoxyquinolin-3-yl)-1H-imidazol-2-yl)-1,4-diazepan-1-yl)-2-(6-methoxy-2-(trifluoromethyl)-1H-benzo[d]imidazol-1-yl)ethan-1-one]", "pEC50": "> 7.00"},
      {"compound": "COc1ccc2nc(C(F)(F)F)n(CC(=O)N3CCN(CCn4cccn4)CCC3c3ncc(-c4cc5ccccc5nc4OC)[nH]3)c2c1", "note": "(stereo not drawn) [1-(4-(2-(1H-pyrazol-1-yl)ethyl)-7-(5-(2-methoxyquinolin-3-yl)-1H-imidazol-2-yl)-1,4-diazepan-1-yl)-2-(6-methoxy-2-(trifluoromethyl)-1H-benzo[d]imidazol-1-yl)ethan-1-one]", "pEC50": "> 7.00"},
      {"compound": "COc1ccc2nc(C(F)(F)F)n(CC(=O)N3CCN(Cc4ccon4)CCC3c3ncc(-c4cc5ccccc5nc4OC)[nH]3)c2c1", "note": "(stereo not drawn) [1-(4-(isoxazol-3-ylmethyl)-7-(5-(2-methoxyquinolin-3-yl)-1H-imidazol-2-yl)-1,4-diazepan-1-yl)-2-(6-methoxy-2-(trifluoromethyl)-1H-benzo[d]imidazol-1-yl)ethan-1-one]", "pEC50": "> 7.00"},
      {"compound": "COc1ccc2nc(C(F)(F)F)n(CC(=O)N3CCN(C4CCC4)CCC3c3ncc(-c4cc5ccccc5nc4OC)[nH]3)c2c1", "note": "(stereo not drawn) [1-(4-cyclobutyl-7-(5-(2-methoxyquinolin-3-yl)-1H-imidazol-2-yl)-1,4-diazepan-1-yl)-2-(6-methoxy-2-(trifluoromethyl)-1H-benzo[d]imidazol-1-yl)ethan-1-one]", "pEC50": "> 7.00"},
      {"compound": "COc1nc2ccccc2cc1-c1cnc(C2CCN(Cc3ccn(C)n3)CCN2C(=O)Cn2c(C(F)(F)F)nc3ccccc32)[nH]1", "note": "(stereo not drawn) [1-(7-(5-(2-methoxyquinolin-3-yl)-1H-imidazol-2-yl)-4-((1-methyl-1H-pyrazol-3-yl)methyl)-1,4-diazepan-1-yl)-2-(2-(trifluoromethyl)-1H-benzo[d]imidazol-1-yl)ethan-1-one]", "pEC50": "> 7.00"},
      {"compound": "COc1nc2ccccc2cc1-c1cnc([C@@H]2CN(CC3CCOC3)CCN2C(=O)Cn2c(C(F)(F)F)nc3ccccc32)[nH]1", "note": "(stereo partly drawn) [1-((2S)-2-(5-(2-methoxyquinolin-3-yl)-1H-imidazol-2-yl)-4-((tetrahydrofuran-3-yl)methyl)piperazin-1-yl)-2-(2-(trifluoromethyl)-1H-benzo[d]imidazol-1-yl)ethan-1-one]", "pEC50": "> 7.00"},
      {"compound": "COc1nc2ccccc2cc1-c1cnc([C@@H]2CN(CC3CCOC3)CCN2C(=O)Cn2c(C)nc3ccc(C(F)(F)F)cc32)[nH]1", "note": "(stereo partly drawn) [1-((2S)-2-(5-(2-methoxyquinolin-3-yl)-1H-imidazol-2-yl)-4-((tetrahydrofuran-3-yl)methyl)piperazin-1-yl)-2-(2-methyl-6-(trifluoromethyl)-1H-benzo[d]imidazol-1-yl)ethan-1-one]", "pEC50": "> 7.00"},
      {"compound": "COc1ccc2nc(C)n(CC(=O)N3CCN(CC4CCOC4)C[C@H]3c3ncc(-c4ccc5ncsc5c4)[nH]3)c2c1", "note": "(stereo partly drawn) [1-((2S)-2-(5-(benzo[d]thiazol-6-yl)-1H-imidazol-2-yl)-4-((tetrahydrofuran-3-yl)methyl)piperazin-1-yl)-2-(6-methoxy-2-methyl-1H-benzo[d]imidazol-1-yl)ethan-1-one]", "pEC50": "5.30 to 6.00"},
      {"compound": "COc1ccc2nc(C)n(CC(=O)N3CCN(CC4CCOC4)C[C@H]3c3ncc(-c4cc5ccccc5cn4)[nH]3)c2c1", "note": "(stereo partly drawn) [1-((2S)-2-(5-(isoquinolin-3-yl)-1H-imidazol-2-yl)-4-((tetrahydrofuran-3-yl)methyl)piperazin-1-yl)-2-(6-methoxy-2-methyl-1H-benzo[d]imidazol-1-yl)ethan-1-one]", "pEC50": "6.30 to 7.00"},
      {"compound": "COc1ccc2nc(C(F)(F)F)n(CC(=O)N3CCN(CC4CCN(C(C)=O)C4)C[C@H]3c3ncc(-c4cc5ccccc5nc4OC)[nH]3)c2c1", "note": "(stereo partly drawn) [1-((2S)-4-((1-acetylpyrrolidin-3-yl)methyl)-2-(5-(2-methoxyquinolin-3-yl)-1H-imidazol-2-yl)piperazin-1-yl)-2-(6-methoxy-2-(trifluoromethyl)-1H-benzo[d]imidazol-1-yl)ethan-1-one]", "pEC50": "> 7.00"},
      {"compound": "COc1ccc2nc(C(F)(F)F)n(CC(=O)N3CCC(O)C[C@H]3c3ncc(-c4cc5ccccc5nc4OC)[nH]3)c2c1", "note": "(stereo partly drawn) [1-((2S)-4-hydroxy-2-(5-(2-methoxyquinolin-3-yl)-1H-imidazol-2-yl)piperidin-1-yl)-2-(6-methoxy-2-(trifluoromethyl)-1H-benzo[d]imidazol-1-yl)ethan-1-one]", "pEC50": "> 7.00"},
      {"compound": "COc1ccc2nc(C(F)(F)F)n(CC(=O)N3CC[C@H](NCCn4cccn4)C[C@H]3c3ncc(-c4cc5ccccc5nc4OC)[nH]3)c2c1", "note": "[1-((2S,4S)-4-((2-(1H-pyrazol-1-yl)ethyl)amino)-2-(5-(2-methoxyquinolin-3-yl)-1H-imidazol-2-yl)piperidin-1-yl)-2-(6-methoxy-2-(trifluoromethyl)-1H-benzo[d]imidazol-1-yl)ethan-1-one]", "pEC50": "> 7.00"},
      {"compound": "COc1ccc2nc(C(F)(F)F)n(CC(=O)N3CC[C@H](NCCO)C[C@H]3c3ncc(-c4cc5ccccc5nc4OC)[nH]3)c2c1", "note": "[1-((2S,4S)-4-((2-hydroxyethyl)amino)-2-(5-(2-methoxyquinolin-3-yl)-1H-imidazol-2-yl)piperidin-1-yl)-2-(6-methoxy-2-(trifluoromethyl)-1H-benzo[d]imidazol-1-yl)ethan-1-one]", "pEC50": "> 7.00"}
    ]}
  ]
}
